Data taken from ChEMBL document CHEMBL5154747, “Discovery of new carbonic anhydrase IX inhibitors as anticancer agents by toning the hydrophobic and hydrophilic rims of the active site to encounter the dual-tail approach” (Eur J Med Chem, 2022).

Tests used:
SW-620 = experiment: Anticancer activity against human SW-620 cells assessed as cell growth inhibition at 10 uM incubated for 48 hrs by SRB assay relative to control; format: functional; settings: read-out: GI
EKVX = experiment: Anticancer activity against human EKVX cells assessed as cell growth inhibition at 10 uM incubated for 48 hrs by SRB assay relative to control; format: functional; settings: read-out: GI
HOP-92 = experiment: Anticancer activity against human HOP-92 cells assessed as cell growth inhibition at 10 uM incubated for 48 hrs by SRB assay relative to control; format: functional; settings: read-out: GI
PC-3 = experiment: Anticancer activity against human PC-3 cells assessed as cell growth inhibition at 10 uM incubated for 48 hrs by SRB assay relative to control; format: functional; settings: read-out: GI
UO-31 = experiment: Anticancer activity against human UO-31 cells assessed as cell growth inhibition at 10 uM incubated for 48 hrs by SRB assay relative to control; format: functional; settings: read-out: GI
Hs-578T = experiment: Anticancer activity against human Hs-578T cells assessed as cell growth inhibition at 10 uM incubated for 48 hrs by SRB assay relative to control; format: functional; settings: read-out: GI
MDA-MB-468 = experiment: Anticancer activity against human MDA-MB-468 cells assessed as cell growth inhibition at 10 uM incubated for 48 hrs by SRB assay relative to control; format: functional; settings: read-out: GI
OVCAR-3 = experiment: Anticancer activity against human OVCAR-3 cells assessed as cell growth inhibition at 10 uM incubated for 48 hrs by SRB assay relative to control; format: functional; settings: read-out: GI
SF-539 = experiment: Anticancer activity against human SF-539 cells assessed as cell growth inhibition at 10 uM incubated for 48 hrs by SRB assay relative to control; format: functional; settings: read-out: GI
MDA-MB-435 = experiment: Anticancer activity against human MDA-MB-435 cells assessed as cell growth inhibition at 10 uM incubated for 48 hrs by SRB assay relative to control; format: functional; settings: read-out: GI
DU-145 = experiment: Anticancer activity against human DU-145 cells assessed as cell growth inhibition at 10 uM incubated for 48 hrs by SRB assay relative to control; format: functional; settings: read-out: GI
Malme-3M = experiment: Anticancer activity against human Malme-3M cells assessed as cell growth inhibition at 10 uM incubated for 48 hrs by SRB assay relative to control; format: functional; settings: read-out: GI
KM12 = experiment: Anticancer activity against human KM12 cells assessed as cell growth inhibition at 10 uM incubated for 48 hrs by SRB assay relative to control; format: functional; settings: read-out: GI
K562 = experiment: Anticancer activity against human K562 cells assessed as cell growth inhibition at 10 uM incubated for 48 hrs by SRB assay relative to control; format: functional; settings: read-out: GI
UACC-257 = experiment: Anticancer activity against human UACC-257 cells assessed as cell growth inhibition at 10 uM incubated for 48 hrs by SRB assay relative to control; format: functional; settings: read-out: GI
HCC 2998 = experiment: Anticancer activity against human HCC 2998 cells assessed as cell growth inhibition at 10 uM incubated for 48 hrs by SRB assay relative to control; format: functional; settings: read-out: GI
U-251 = experiment: Anticancer activity against human U-251 cells assessed as cell growth inhibition at 10 uM incubated for 48 hrs by SRB assay relative to control; format: functional; settings: read-out: GI
NCI-H23 = experiment: Anticancer activity against human NCI-H23 cells assessed as cell growth inhibition at 10 uM incubated for 48 hrs by SRB assay relative to control; format: functional; settings: read-out: GI
SNB-19 = experiment: Anticancer activity against human SNB-19 cells assessed as cell growth inhibition at 10 uM incubated for 48 hrs by SRB assay relative to control; format: functional; settings: read-out: GI
NCI-H522 = experiment: Anticancer activity against human NCI-H522 cells assessed as cell growth inhibition at 10 uM incubated for 48 hrs by SRB assay relative to control; format: functional; settings: read-out: GI
SK-MEL-2 = experiment: Anticancer activity against human SK-MEL-2 cells assessed as cell growth inhibition at 10 uM incubated for 48 hrs by SRB assay relative to control; format: functional; settings: read-out: GI
Carbonic anhydrase 9 = Carbonic anhydrase 9 (Homo sapiens, UniProt Q16790); experiment: Inhibition of recombinant human CA 9 preincubated for 15 mins by phenol red dye based stopped flow CO2 hydration assay
SF-295 = experiment: Anticancer activity against human SF-295 cells assessed as cell growth inhibition at 10 uM incubated for 48 hrs by SRB assay relative to control; format: functional; settings: read-out: GI
UACC-62 = experiment: Anticancer activity against human UACC-62 cells assessed as cell growth inhibition at 10 uM incubated for 48 hrs by SRB assay relative to control; format: functional; settings: read-out: GI
A498 = experiment: Anticancer activity against human A498 cells assessed as cell growth inhibition at 10 uM incubated for 48 hrs by SRB assay relative to control; format: functional; settings: read-out: GI
T47D = experiment: Anticancer activity against human T47D cells assessed as cell growth inhibition at 10 uM incubated for 48 hrs by SRB assay relative to control; format: functional; settings: read-out: GI
A549 = experiment: Anticancer activity against human A549 cells assessed as cell growth inhibition at 10 uM incubated for 48 hrs by SRB assay relative to control; format: functional; settings: read-out: GI
SK-MEL-5 = experiment: Anticancer activity against human SK-MEL-5 cells assessed as cell growth inhibition at 10 uM incubated for 48 hrs by SRB assay relative to control; format: functional; settings: read-out: GI
HT-29 = experiment: Anticancer activity against human HT-29 cells assessed as cell growth inhibition at 10 uM incubated for 48 hrs by SRB assay relative to control; format: functional; settings: read-out: GI
COLO 205 = experiment: Anticancer activity against human COLO 205 cells assessed as cell growth inhibition at 10 uM incubated for 48 hrs by SRB assay relative to control; format: functional; settings: read-out: GI
CCRF-CEM = experiment: Anticancer activity against human CCRF-CEM cells assessed as cell growth inhibition at 10 uM incubated for 48 hrs by SRB assay relative to control; format: functional; settings: read-out: GI
NCI-H460 = experiment: Anticancer activity against human NCI-H460 cells assessed as cell growth inhibition at 10 uM incubated for 48 hrs by SRB assay relative to control; format: functional; settings: read-out: GI
OVCAR-8 = experiment: Anticancer activity against human OVCAR-8 cells assessed as cell growth inhibition at 10 uM incubated for 48 hrs by SRB assay relative to control; format: functional; settings: read-out: GI
NCI-H226 = experiment: Anticancer activity against human NCI-H226 cells assessed as cell growth inhibition at 10 uM incubated for 48 hrs by SRB assay relative to control; format: functional; settings: read-out: GI
CAKI-1 = experiment: Anticancer activity against human CAKI-1 cells assessed as cell growth inhibition at 10 uM incubated for 48 hrs by SRB assay relative to control; format: functional; settings: read-out: GI
SK-OV-3 = experiment: Anticancer activity against human SK-OV-3 cells assessed as cell growth inhibition at 10 uM incubated for 48 hrs by SRB assay relative to control; format: functional; settings: read-out: GI
HOP-62 = experiment: Anticancer activity against human HOP-62 cells assessed as cell growth inhibition at 10 uM incubated for 48 hrs by SRB assay relative to control; format: functional; settings: read-out: GI
MCF7 = experiment: Anticancer activity against human MCF7 cells assessed as cell growth inhibition at 10 uM incubated for 48 hrs by SRB assay relative to control; format: functional; settings: read-out: GI
NCI-H322M = experiment: Anticancer activity against human NCI-H322M cells assessed as cell growth inhibition at 10 uM incubated for 48 hrs by SRB assay relative to control; format: functional; settings: read-out: GI
RPMI-8226 = experiment: Anticancer activity against human RPMI-8226 cells assessed as cell growth inhibition at 10 uM incubated for 48 hrs by SRB assay relative to control; format: functional; settings: read-out: GI

Structure (SMILES)	inhibition of growth at 10 µM (SW-620)	inhibition of growth at 10 µM (EKVX)	inhibition of growth at 10 µM (HOP-92)	inhibition of growth at 10 µM (PC-3)	inhibition of growth at 10 µM (UO-31)	inhibition of growth at 10 µM (Hs-578T)	inhibition of growth at 10 µM (MDA-MB-468)	inhibition of growth at 10 µM (OVCAR-3)	inhibition of growth at 10 µM (SF-539)	inhibition of growth at 10 µM (MDA-MB-435)	inhibition of growth at 10 µM (DU-145)	inhibition of growth at 10 µM (Malme-3M)	inhibition of growth at 10 µM (KM12)	inhibition of growth at 10 µM (K562)	inhibition of growth at 10 µM (UACC-257)	inhibition of growth at 10 µM (HCC 2998)	inhibition of growth at 10 µM (U-251)	inhibition of growth at 10 µM (NCI-H23)	inhibition of growth at 10 µM (SNB-19)	inhibition of growth at 10 µM (NCI-H522)	also measured
NS(=O)(=O)c1ccc(Nc2nc(N/N=C/CCc3ccccc3)nc(Nc3ccccc3)n2)cc1	< 10%	< 10%	< 10%	< 10%	< 10%	< 10%	11%	< 10%	< 10%	< 10%	< 10%	< 10%	< 10%	< 10%	< 10%	< 10%	< 10%	< 10%	< 10%	12%	inhibition of growth at 10 µM (SK-MEL-2): < 10%; Ki (Carbonic anhydrase 9): 0.0288 µM; inhibition of growth at 10 µM (SF-295): < 10%; inhibition of growth at 10 µM (UACC-62): < 10%; inhibition of growth at 10 µM (A498): < 10%; inhibition of growth at 10 µM (T47D): < 10%; inhibition of growth at 10 µM (A549): < 10%; inhibition of growth at 10 µM (SK-MEL-5): < 10%; inhibition of growth at 10 µM (HT-29): < 10%; inhibition of growth at 10 µM (COLO 205): < 10%; inhibition of growth at 10 µM (CCRF-CEM): < 10%; inhibition of growth at 10 µM (NCI-H460): < 10%; inhibition of growth at 10 µM (OVCAR-8): < 10%; inhibition of growth at 10 µM (NCI-H226): < 10%; inhibition of growth at 10 µM (CAKI-1): < 10%; inhibition of growth at 10 µM (SK-OV-3): < 10%; inhibition of growth at 10 µM (HOP-62): < 10%; inhibition of growth at 10 µM (MCF7): < 10%; inhibition of growth at 10 µM (NCI-H322M): < 10%; inhibition of growth at 10 µM (RPMI-8226): < 10%
NS(=O)(=O)c1ccc(Nc2nc(N/N=C/c3cccc4ccccc34)nc(Nc3ccccc3)n2)cc1	< 10%	20%	< 10%	44%	18%	11%	< 10%	23%	22%	41%	31%	19%	27%	41%	< 10%	15%	33%	10%	< 10%	24%	inhibition of growth at 10 µM (SK-MEL-2): 17%; Ki (Carbonic anhydrase 9): 0.0281 µM; inhibition of growth at 10 µM (SF-295): 29%; inhibition of growth at 10 µM (UACC-62): 18%; inhibition of growth at 10 µM (A498): < 10%; inhibition of growth at 10 µM (T47D): 55%; inhibition of growth at 10 µM (A549): 26%; inhibition of growth at 10 µM (SK-MEL-5): 29%; inhibition of growth at 10 µM (HT-29): 36%; inhibition of growth at 10 µM (COLO 205): 18%; inhibition of growth at 10 µM (CCRF-CEM): 81%; inhibition of growth at 10 µM (NCI-H460): 13%; inhibition of growth at 10 µM (OVCAR-8): 40%; inhibition of growth at 10 µM (NCI-H226): 19%; inhibition of growth at 10 µM (CAKI-1): 23%; inhibition of growth at 10 µM (SK-OV-3): < 10%; inhibition of growth at 10 µM (HOP-62): 11%; inhibition of growth at 10 µM (MCF7): 46%; inhibition of growth at 10 µM (NCI-H322M): < 10%; inhibition of growth at 10 µM (RPMI-8226): 51%
Cc1nn(-c2ccccc2)cc1/C=N/Nc1nc(Nc2ccccc2)nc(Nc2ccc(S(N)(=O)=O)cc2)n1	114%	81%	113%	98%	104%	86%	137%	131%	28%	131%	90%	125%	90%	90%	44%	117%	122%	114%	92%	100%	inhibition of growth at 10 µM (SK-MEL-2): 45%; Ki (Carbonic anhydrase 9): 0.207 µM; inhibition of growth at 10 µM (SF-295): 89%; inhibition of growth at 10 µM (UACC-62): 127%; inhibition of growth at 10 µM (A498): 130%; inhibition of growth at 10 µM (T47D): 81%; inhibition of growth at 10 µM (A549): 128%; inhibition of growth at 10 µM (SK-MEL-5): 144%; inhibition of growth at 10 µM (HT-29): 94%; inhibition of growth at 10 µM (COLO 205): 122%; inhibition of growth at 10 µM (CCRF-CEM): 91%; inhibition of growth at 10 µM (NCI-H460): 135%; inhibition of growth at 10 µM (OVCAR-8): 81%; inhibition of growth at 10 µM (NCI-H226): 159%; inhibition of growth at 10 µM (CAKI-1): 127%; inhibition of growth at 10 µM (SK-OV-3): 49%; inhibition of growth at 10 µM (HOP-62): 90%; inhibition of growth at 10 µM (MCF7): 169%; inhibition of growth at 10 µM (NCI-H322M): 90%; inhibition of growth at 10 µM (RPMI-8226): 123%
